Experimental data from the supplement of paper PMC10307832.

Legend:
Experiment in all cases: relative viability (nuclei count vs DMSO), 5 days (fraction); higher = more cells survive
BAM7 + Tozasertib = compound: CCOC1=CC=CC=C1N=NC2=C(NN(C2=O)C3=NC(=CS3)C4=CC=CC=C4)C [BAM7] + Cc1cc(Nc2cc(N3CCN(C)CC3)nc(Sc3ccc(NC(=O)C4CC4)cc3)n2)n[nH]1 [Tozasertib] (partner 0.1 µM)
Outline: (§1)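 One day after seeding in 1536-well plates, lung cancer cell lines were dosed by pin tool. Dosing was either single-drug or a fixed anchor-drug dose plus five library-drug doses (not always all listed) in √10 steps. After 5 days, nuclei were stained in one fix-and-stain step and counted on 4× images, and relative viability is the nuclei count of treated wells over that of vehicle wells, given as the median of duplicate plates.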

[1] = compound: CCn1c(-c2nonc2N)nc2c(C#CC(C)(C)O)ncc(OC[C@H]3CCCNC3)c21 + CC(=O)c1c(C)c2cnc(Nc3ccc(N4CCNCC4)cn3)nc2n(C2CCCC2)c1=O [Palbociclib] (partner 0.5 µM)
Outline: as §1

[2] = compound: CCn1c(-c2nonc2N)nc2c(C#CC(C)(C)O)ncc(OC[C@H]3CCCNC3)c21 + CC1(C)CCC(c2ccc(Cl)cc2)=C(CN2CCN(c3ccc(C(=O)NS(=O)(=O)c4ccc(N[C@H](CCN5CCOCC5)CSc5ccccc5)c(S(=O)(=O)C(F)(F)F)c4)cc3)CC2)C1 [Navitoclax] (partner 0.5 µM)
Outline: as §1

[3] = compound: CCn1c(-c2nonc2N)nc2c(C#CC(C)(C)O)ncc(OC[C@H]3CCCNC3)c21 + C[C@]1(O)C[C@@H](c2nc(-c3ccc4ccc(-c5ccccc5)nc4c3)c3c(N)nccn32)C1 [Linsitinib] (partner 1 µM)
Outline: as §1

Cell Line | relative viability (BAM7 + Tozasertib; first compound 0.5 µM) | relative viability (BAM7 + Tozasertib; first compound 5 µM) | relative viability (BAM7 + Tozasertib; first compound 15.81 µM) | relative viability (BAM7 + Tozasertib; first compound 50 µM) | relative viability ([1]; first compound 0.01 µM) | relative viability ([1]; first compound 0.03162 µM) | relative viability ([1]; first compound 0.1 µM) | relative viability ([1]; first compound 0.3162 µM) | relative viability ([1]; first compound 1 µM) | relative viability ([2]; first compound 0.01 µM) | relative viability ([2]; first compound 0.03162 µM) | relative viability ([2]; first compound 0.1 µM) | relative viability ([2]; first compound 0.3162 µM) | relative viability ([2]; first compound 1 µM) | relative viability ([3]; first compound 0.01 µM) | relative viability ([3]; first compound 0.03162 µM) | relative viability ([3]; first compound 0.1 µM) | relative viability ([3]; first compound 0.3162 µM) | relative viability ([3]; first compound 1 µM)
201T | 0.737 | 0.805 | 0.673 | 0.726 | 0.35 | 0.378 | 0.33 | 0.352 | 0.36 | 1.21 | 1.22 | 1.26 | 1.19 | 1.17 | 1.05 | 1.1 | 0.986 | 1.03 | 1.02
NCI-H460 | 0.4 | 0.0975 | 0.123 | 0.131 | 0.146 | 0.0929 | 0.18 | 0.127 | 0.139 | 1.1 | 1.17 | 1.13 | 1.05 | 1.19 | 0.747 | 0.752 | 0.687 | 0.774 | 0.64
HCC-15 | 0.471 | 0.493 | 0.346 | 0.284 | 0.76 | 0.71 | 0.716 | 0.614 | 0.683 | 0.72 | 0.752 | 0.721 | 0.634 | 0.653 | 0.798 | 0.932 | 0.856 | 0.816 | 0.828
NCI-H441 | 0.643 | 0.562 | 0.526 | 0.627 | 0.225 | 0.206 | 0.227 | 0.193 | 0.207 | 0.48 | 0.626 | 0.591 | 0.65 | 0.556 | 0.592 | 0.556 | 0.67 | 0.592 | 0.657
EPLC-272H | 0.252 | – | 0.275 | 0.334 | 0.32 | 0.371 | 0.297 | 0.281 | 0.259 | 1.24 | 1.21 | 0.932 | 1.16 | 0.906 | 1.24 | 1.21 | 1.03 | 1.17 | 1.39
